# Experimental data published in patent US9610463B2, “Cosmetic or dermatological preparation comprising collagen, chitosan, glycosylaminoglycan and cell growth promoting peptide and/or cellular complex” (BEIERSDORF AG, priority 2009, dated 2017).
# “And” between values parts separate entries of the source, which are not always exact repeats. Identical values can stand only once.
# Experiments:
# Format in all cases: cell-based
# [1] = test system: HacaT keratinocyte cell line; assay: Cell growth assay, HacaT keratinocyte cell line
# Protocol: (§1) The effect of the addition of MPC vs. (MPC+IDP4), GPVE vs. (GPVE+IDP4), and GPVE/MPC vs. (GPVE/MPC=IDP4) on the growth of the following cells was investigated: • 1. HacaT keratinocyte cell line • 2. NIH3T3 fibroblast cell line • 3. MSC (mesenchymal stem cells).
# (§2) Method: • (1) Cell seeding • (2) Starvation for 24 h with serum-free DMEM media • (3) Sample treatment • (4) Cultivation for 72 h • (5) Cell harvesting • (6) Cell growth assay
# [2] = test system: NIH3T3 fibroblast cell line; assay: Cell growth assay, NIH3T3 fibroblast cell line
# Protocol: as §1, §2
# [3] = test system: MSC (mesenchymal stem cells); assay: Cell growth assay, mesenchymal stem cells
# Protocol: as §1, §2
# [4] = test system: NIH3T3 fibroblast cell line; assay: ECM expression (ELISA): procollagen expression by fibroblast cells; settings: control = 100
# Protocol: (§3) The effect of the addition of MPC and MPC+IDP4 on the extracellular matrix expression of procollagen, fibronectin, elastin, hyaluronic acid and laminine by the following cells was investigated: • 1. HacaT keratinocyte cell line (hyaluronic acid, laminine) • 2. NIH3T3 fibroblast cell line (procollagen, fibronectin, elastin).
# (§4) Method: • (1) Cell seeding • (2) Starvation for 24 h with serum-free DMEM media • (3) Sample treatment • (4) Cultivation for 72 h • (5) Cell supernatant collection • (6) Assay
# (§5) Assay (ELISA): • (a) Coating with capture antibody • (b) Blocking (blocking solution) • (c) Aspiration and washing each well five times • (d) Addition of sample and standard to each well • (e) Aspiration and washing each well five times • (f) Addition of conjugate to each well • (g) Aspiration and washing each well five times • (h) Addition of substrate solution to each well • (i) Addition of stop solution to each well • (j) Reading of optical density at 450 nm
# (§6) The effect of the addition of GPVE and GPVE+IDP4 on the extracellular matrix expression of procollagen, fibronectin, elastin, hyaluronic acid and laminine by the following cells was investigated: • 1. HacaT keratinocyte cell line (hyaluronic acid, laminine) • 2. NIH3T3 fibroblast cell line (procollagen, fibronectin, elastin).
# (§7) The effect of GPVE/MPC and GPVE/MPC+IDP4 on the extracellular matrix expression of procollagen, fibronectin, elastin, hyaluronic acid and laminine by the following cells was investigated: • 1. HacaT keratinocyte cell line (hyaluronic acid, laminine) • 2. NIH3T3 fibroblast cell line (procollagen, fibronectin, elastin).
# [5] = test system: NIH3T3 fibroblast cell line; assay: ECM expression (ELISA): fibronectin expression by fibroblast cells; settings: control = 100
# Protocol: as §3, §4, §5, §6, §7
# [6] = test system: NIH3T3 fibroblast cell line; assay: ECM expression (ELISA): elastin expression by fibroblast cells; settings: control = 100
# Protocol: as §3, §4, §5, §6, §7
# [7] = test system: HacaT keratinocyte cell line; assay: ECM expression (ELISA): hyaluronic acid expression by keratinocyte cells; settings: control = 100
# Protocol: Method: • (1) Cell seeding • (2) Starvation for 24 h with serum-free DMEM media • (3) Sample treatment • (4) Cultivation for 72 h • (5) Cell supernatant collection • (6) Assay […]
# [8] = test system: HacaT keratinocyte cell line; assay: ECM expression (ELISA): laminine expression by keratinocyte cells; settings: control = 100
# Protocol: as §3, §4, §5, §6, §7
# mesenchymal stem cells = assay: Protective effect against H2O2 (anti-apoptosis effect); settings: W/O H2O2; With H2O2 0% MPC = 100
# Protocol: The protective (anti-apoptosis) effect of the addition of MPC and MPC+IDP4 on mesenchymal stem cells against H2O2 (free radical former) was tested.
# Method: • (1) Cell seeding • (2) Starvation for 24 h with serum-free DMEM media • (3) Sample treatment • (4) Cultivation for 24 h • (5) Treatment with 5 mM H2O2 • (6) Incubation for 24 h • (7) Cell growth assay
# [9] = alone at the concentration employed (1 μg)
substance,measurement,setting,value
oligopeptide-21 [IDP4],"growth, Haca T (%)","[1]; 10 μg/ml, control = 100",148%
same,"significance of increase in growth, keratinocyte cell line",[1]; [9],did not afford any statistically significant increase in growth
same,"growth, NIH3T3 (%)","[2]; 10 μg/ml, control = 100",260%
same,"significance of increase in growth, fibroblast cell line",[2]; [9],did not afford any statistically significant increase in growth
same,"growth, MSC (%)","[3]; 10 μg/ml, control = 100",145%
same,"significance of increase in growth, mesenchymal stem cells",[3]; [9],did not afford any statistically significant increase in growth
same,procollagen %,[4]; 10 ng/ml,175%
same,procollagen %,[4]; 100 ng/ml,226%
same,procollagen %,[4]; 1 μg/ml,302%
same,procollagen %,[4]; 10 μg/ml,333%
same,fibronectin %,[5]; 10 ng/ml,101%
same,fibronectin %,[5]; 100 ng/ml,105%
same,fibronectin %,[5]; 1 μg/ml,116%
same,fibronectin %,[5]; 10 μg/ml,158%
same,elastin %,[6]; 10 ng/ml,131%
same,elastin %,[6]; 100 ng/ml,127%
same,elastin %,[6]; 1 μg/ml,137%
same,elastin %,[6]; 10 μg/ml,131% and 137%
same,hyaluronic acid %,[7]; 10 ng/ml,110%
same,hyaluronic acid %,[7]; 100 ng/ml,137.5%
same,hyaluronic acid %,[7]; 1 μg/ml,150%
same,hyaluronic acid %,[7]; 10 μg/ml,160%
same,laminine %,[8]; 10 ng/ml,115%
same,laminine %,[8]; 100 ng/ml,135%
same,laminine %,[8]; 1 μg/ml,175%
same,laminine %,[8]; 10 μg/ml,177.5%
same,"cell growth, MSC",mesenchymal stem cells,175
